Measurements reported in the Kinase Knowledgebase extract (Sharma et al. 2016).

Biological target: PIK3CG (human) (UniProt P48736)
Test: Assessment of PIK3CG Kinase Activity

Sequence of PIK3CG (human) (P48736 whole entry, looked up): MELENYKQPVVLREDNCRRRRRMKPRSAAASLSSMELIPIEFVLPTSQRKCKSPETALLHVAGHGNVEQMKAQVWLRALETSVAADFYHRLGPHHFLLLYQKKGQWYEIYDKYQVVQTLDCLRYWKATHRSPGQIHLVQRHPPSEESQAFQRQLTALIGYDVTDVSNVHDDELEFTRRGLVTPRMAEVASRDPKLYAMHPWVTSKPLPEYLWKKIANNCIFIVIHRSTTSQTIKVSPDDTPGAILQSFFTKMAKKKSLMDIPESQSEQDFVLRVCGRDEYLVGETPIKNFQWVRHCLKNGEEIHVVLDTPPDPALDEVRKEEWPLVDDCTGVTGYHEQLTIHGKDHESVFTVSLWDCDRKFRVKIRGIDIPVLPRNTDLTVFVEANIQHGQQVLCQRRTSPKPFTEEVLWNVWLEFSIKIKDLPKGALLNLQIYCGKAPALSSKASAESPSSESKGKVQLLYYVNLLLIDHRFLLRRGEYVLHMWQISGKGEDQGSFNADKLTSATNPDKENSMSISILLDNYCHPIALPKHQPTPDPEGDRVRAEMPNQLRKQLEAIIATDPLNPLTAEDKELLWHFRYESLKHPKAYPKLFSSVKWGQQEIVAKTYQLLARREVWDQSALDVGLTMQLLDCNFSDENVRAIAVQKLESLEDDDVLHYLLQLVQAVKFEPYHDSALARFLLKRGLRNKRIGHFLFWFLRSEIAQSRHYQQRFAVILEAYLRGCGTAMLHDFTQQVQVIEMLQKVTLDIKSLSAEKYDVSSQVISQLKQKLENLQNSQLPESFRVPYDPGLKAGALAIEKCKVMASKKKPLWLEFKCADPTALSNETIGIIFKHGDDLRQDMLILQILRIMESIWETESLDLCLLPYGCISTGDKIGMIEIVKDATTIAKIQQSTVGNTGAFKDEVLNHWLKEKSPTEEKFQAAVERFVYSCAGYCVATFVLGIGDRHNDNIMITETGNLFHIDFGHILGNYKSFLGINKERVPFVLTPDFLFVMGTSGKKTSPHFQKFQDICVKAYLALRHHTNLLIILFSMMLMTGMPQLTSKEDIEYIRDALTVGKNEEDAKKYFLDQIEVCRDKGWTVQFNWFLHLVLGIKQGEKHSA

IC50, < 800 nM:
CC(=O)Nc1nc2c(s1)-c1c(cnn1-c1ccc(C(=O)N[C@H](C(N)=O)[C@@H](C)O)cc1Cl)CC2
CC(=O)Nc1nc2c(s1)-c1c(cnn1-c1cccc([N+](=O)[O-])c1)CC2
CC(=O)Nc1nc2c(s1)-c1c(cnn1-c1ccc(C(=O)N(C)CC(C)O)cc1)CC2 (centres undefined)
CNC(=O)Nc1nc2c(s1)-c1c(cnn1-c1ccccc1Cl)C2
COC(=O)c1nn(-c2ccccc2F)c2c1CCc1nc(NC(C)=O)sc1-2
CC(=O)Nc1nc2c(s1)-c1c(c(-c3ccccn3)nn1-c1ccccc1C)CC2
CC(=O)Nc1nc2c(s1)-c1c(cnn1-c1ccc(Br)cc1)CC2
CC(=O)Nc1nc2c(s1)-c1c(cnn1CCc1ccccc1)CC2
CC(=O)Nc1nc2c(s1)-c1c(cnn1-c1ccc3cn[nH]c3c1)CC2
CC(=O)Nc1nc2c(s1)-c1c(c(-c3ccco3)nn1-c1ccccc1Br)CC2
CC(=O)Nc1nc2c(s1)-c1c(cnn1-c1cccc(N3C4CCC3CC(O)C4)c1)CC2 (centres undefined)
CC(=O)Nc1nc2c(s1)-c1c(c(C(=O)NCCO)nn1-c1ccccc1)CC2
CC(=O)Nc1nc2c(s1)-c1c(cnn1-c1ccc(C(=O)NCc3ccccn3)cc1)CC2
CC(=O)Nc1nc2c(s1)-c1c(c(-c3ccco3)nn1-c1ccccc1F)CC2
CC(=O)Nc1nc2c(s1)-c1c(c(-c3ccco3)nn1-c1ccccc1Cl)CC2
CC(=O)Nc1nc2c(s1)-c1c(cnn1-c1ccccc1C(F)(F)F)CC2
CC(=O)Nc1nc2c(s1)-c1c(cnn1-c1ccc(O)c(Cl)c1)CC2
CN(C)c1ncc2c(n1)-c1sc(NC(N)=O)nc1CC2
CC(=O)Nc1nc2c(s1)-c1c(cnn1-c1ccc(S(=O)(=O)O)cc1)CC2
CC(=O)Nc1nc2c(s1)-c1c(c(-c3c[nH]cn3)nn1-c1ccccc1C(F)(F)F)CC2
CCN(CC)CC1CCCCN1C(=O)c1ccc(-n2ncc3c2-c2sc(NC(C)=O)nc2CC3)cc1 (centres undefined)
CC(=O)Nc1nc2c(s1)-c1c(cnn1-c1ccc(C(=O)N[C@@H](COCc3ccccc3)C(N)=O)cc1Cl)CC2
Cc1ccccc1-n1ncc2c1C1SC(N)=NC1C2 (centres undefined)
CC(=O)Nc1nc2c(s1)-c1c(c(-c3ccco3)nn1-c1cccc(Cl)c1)CC2
CC(=O)Nc1nc2c(s1)-c1c(cnn1-c1ccc(C(=O)N3CCN(NC(=O)c4ccc(F)cc4)CC3)cc1)CC2
CC(=O)Nc1nc2c(s1)-c1c(cnn1-c1ccc(C(=O)NCC3OCCO3)cc1)CC2
CC(=O)Nc1nc2c(s1)-c1nn(-c3ccc(C(=O)NC4CCN(C5CCCC5)CC4)cc3Cl)c(-c3ccco3)c1CC2
CC(=O)Nc1nc2c(s1)-c1c(cnn1-c1ccc(C(=O)NCCCCCCNC(=O)Cc3ccccc3)cc1)CC2
CC(=O)Nc1nc2c(s1)-c1nc(SCCCN(C)C)ncc1CC2
CC(=O)Nc1nc2c(s1)-c1c(cnn1-c1ccc(CC(=O)NC3CCS(=O)(=O)C3)cc1)CC2 (centres undefined)
CC(=O)Nc1nc2c(s1)-c1c(cnn1-c1ccc(C(=O)NCCN3CCNC3=O)cc1)CC2
C=C1CCN(C(=O)c2ccc(-n3ncc4c3-c3sc(NC(C)=O)nc3CC4)cc2)CC1
CC(=O)Nc1nc2c(s1)-c1c(c(-c3ccoc3)nn1-c1ccccc1C)CC2
CC(=O)Nc1nc2c(s1)-c1c(cnn1-c1cc(C)ccc1C)CC2
C#CCNc1ncc2c(n1)-c1sc(NC(C)=O)nc1CC2
COCc1nn(-c2ccc(C(=O)N(C)C3CCN(C)CC3)cc2Cl)c2c1CCc1nc(NC(C)=O)sc1-2
COc1cc(OC)cc(-c2ncc3c(n2)-c2sc(NC(C)=O)nc2CC3)c1
CC(=O)Nc1nc2c(s1)-c1nc(-c3cccc(Cl)c3)ncc1CC2
CC(=O)Nc1nc2c(s1)-c1c(cnn1C(N)=O)CC2
CC(=O)Nc1nc2c(s1)-c1c(cnn1C1C=CCCC1)CC2 (centres undefined)
CC(=O)Nc1nc2c(s1)-c1c(cnn1-c1ccc(C(=O)Nc3ccc(C4CCN(C)CC4)cc3)cc1Cl)CC2
CNC(=O)Nc1nc2c(s1)-c1nc(-c3ccccc3C)ncc1CC2
CC(=O)Nc1nc2c(s1)-c1c(cnn1-c1ccc(CC(=O)N(C)CC(C)O)cc1)CC2 (centres undefined)
CC(=O)Nc1nc2c(s1)-c1c(cnn1-c1ccc(CC(=O)N3CCCC(C(N)=O)C3)cc1)CC2 (centres undefined)
CC(=O)Nc1nc2c(s1)-c1c(cnn1-c1ccc(CC(=O)NC3CCOC3=O)cc1)CC2 (centres undefined)
CC(=O)Nc1nc2c(s1)-c1c(cnn1-c1ccc(C(=O)NCCN3CCOCC3)cc1)CC2
CC(=O)Nc1nc2c(s1)-c1c(cnn1-c1ccc(CC(=O)N3CCCC(=O)CC3)cc1)CC2
CC(=O)Nc1nc2c(s1)-c1c(cnn1-c1ccc(C(=O)N[C@H]3CC[C@H](N4CCCCC4)CC3)cc1)CC2
CC(=O)Nc1nc2c(s1)-c1c(cnn1-c1ccc(C(=O)NCCc3cn[nH]c3)cc1)CC2
CC(=O)Nc1nc2c(s1)-c1c(cnn1-c1cc(Cl)ccc1Cl)CC2
CC(=O)Nc1nc2c(s1)-c1c(cnn1-c1ccc(C(=O)N3CCC(N4CCOCC4)CC3)cc1)CC2
CC(=O)Nc1nc2c(s1)-c1c(cnn1-c1ccc(C(=O)N3CCC(N)CC3)cc1)CC2
O=CNc1nc2c(s1)-c1c(cnn1-c1ccccc1)CC2
CC(=O)Nc1nc2c(s1)-c1c(cnn1-c1ccc(C(=O)N3CCC(N4CCOCC4)CC3)cc1Cl)CC2
CC(=O)Nc1nc2c(s1)-c1c(cnn1-c1ccc(C(=O)N3CCC(N4CCNC4=O)CC3)cc1)CC2
CC(=O)Nc1nc2c(s1)-c1c(cnn1-c1cccc(C)c1C)CC2
CC(=O)Nc1nc2c(s1)-c1c(c([C@H]3CCCO3)nn1-c1ccccc1)CC2
CC(=O)Nc1nc2c(s1)-c1c(cnn1-c1ccc(C(=O)NCc3ccncc3)cc1)CC2
CCCC(=O)n1cc2c(n1)-c1sc(NC(C)=O)nc1CC2
CC(=O)Nc1nc2c(s1)-c1c(cnn1-c1ccc(CC(=O)N(C)CC(=O)N3CCOCC3)cc1)CC2
CC(=O)Nc1nc2c(s1)-c1nc(-c3ccccc3C)ncc1CC2
CC(=O)Nc1nc2c(s1)-c1c(c(-c3cn(C)cn3)nn1-c1ccccc1Cl)CC2
CC(=O)Nc1nc2c(s1)-c1c(cnn1-c1ccc(C(=O)N3CCC[C@H]3C(=O)O)cc1)CC2
CC(=O)Nc1nc2c(s1)-c1c(cnn1-c1ccc(C(=O)N[C@H](Cc3cc4ccccc4[nH]3)C(N)=O)cc1Cl)CC2
CC(=O)Nc1nc2c(s1)-c1c(c(-c3cccnc3)nn1-c1ccccc1Cl)CC2
CC(=O)Nc1nc2c(s1)-c1c(c(-c3c[nH]cn3)nn1-c1ccccc1Cl)CC2
CC(=O)Nc1nc2c(s1)-c1c(c(N)nn1-c1ccccc1)CC2
CC(=O)Nc1nc2c(s1)-c1c(cnn1-c1ccc(CC(=O)NCC(=O)N(C)C)cc1)CC2
CC(=O)Nc1nc2c(s1)-c1c(cnn1-c1ccc(C(=O)N[C@@H](Cc3cccc(Cl)c3)C(N)=O)cc1Cl)CC2
CC(=O)Nc1nc2c(s1)-c1c(c(-c3ccccc3)nn1-c1ccccc1Cl)CC2
CC(=O)Nc1nc2c(s1)-c1nn(-c3ccccc3C)c(-c3cn(C)cn3)c1CC2
CC(=O)Nc1nc2c(s1)-c1c(cnn1-c1ccc(C(=O)O)cc1)CC2
CC(=O)Nc1ccc2c(c1)-c1sc(NC(C)=O)nc1CC2
CC(=O)Nc1nc2c(s1)-c1c(c(C)nn1-c1ccccc1)CC2
CC(=O)Nc1nc2c(s1)-c1nn(-c3ccccc3F)c(-c3ccco3)c1CC2
CC(=O)Nc1nc2c(s1)-c1c(cnn1-c1ccc(CC(=O)NCCCN(C)C)cc1)CC2
NC(=O)Nc1nc2c(s1)-c1nc(-c3ccccc3)ncc1CC2
CC(=O)Nc1nc2c(s1)-c1c(cnn1-c1ccc(C(=O)N3CCc4[nH]cnc4C3)cc1)CC2
CC(=O)Nc1nc2c(s1)-c1c(cnn1-c1cccc(C(F)(F)F)c1)CC2
CC=Cn1ncc2c1-c1sc(NC(C)=O)nc1CC2
CC(=O)Nc1nc2c(s1)-c1c(c(-c3ccccc3)nn1-c1ccccc1C(F)(F)F)CC2
COc1ccc(-n2ncc3c2-c2sc(NC(C)=O)nc2CCC3)cc1
CC(=O)Nc1nc2c(s1)-c1nc(-c3ccc(O)cc3)ncc1CC2
CCS(=O)(=O)c1ncc2c(n1)-c1sc(NC(C)=O)nc1CC2
CC(=O)Nc1nc2c(s1)-c1c(c(C(C)C)nn1-c1ccc(C(=O)O)cc1Cl)CC2
CC(=O)Nc1nc2c(s1)-c1c(cnn1-c1c(Cl)cccc1Cl)CC2
CC(=O)Nc1nc2c(s1)-c1c(cnn1-c1ccc(C(=O)N3C[C@@H](C)O[C@@H](C)C3)cc1)CC2
CC(=O)Nc1nc2c(s1)-c1c(cnn1-c1ccc(S(=O)(=O)N3CCCCC3)cc1)CC2
CC(=O)Nc1nc2c(s1)-c1nn(C(=O)C(C)C)cc1CC2
CC(=O)Nc1nc2c(s1)-c1c(cnn1-c1ccc(C(=O)N[C@@H](Cc3cccnc3)C(N)=O)cc1Cl)CC2
CC(=O)Nc1nc2c(s1)-c1nc(-c3ccccc3)ncc1C2
CC(=O)Nc1nc2c(s1)-c1c(c(C(C)C)nn1-c1ccc(C(=O)N(C)C3CCN(C)CC3)cc1Cl)CC2
CC(=O)Nc1nc2c(s1)-c1nc(N3CCCOCC3)ncc1CC2
CC(=O)Nc1nc2c(s1)-c1c(c(N)nn1-c1ccccc1Cl)CC2
CC(=O)Nc1nc2c(s1)-c1c(cnn1-c1ccc(C(=O)N3CCC(O)CC3)cc1)CC2
CC(=O)Nc1nc2c(s1)-c1c(cnn1-c1ccc(Cl)cc1)C2
CC(=O)Nc1nc2c(s1)-c1c(cnn1-c1ccc(CC(=O)NCc3cnn(C)c3)cc1)CC2
CC(=O)Nc1nc2c(s1)-c1c(cnn1-c1ccc(C(=O)N[C@H](CCCCN)C(N)=O)cc1Cl)CC2
CC(=O)Nc1nc2c(s1)-c1c(c(C(C)C)nn1-c1ccccc1Cl)CC2
